Results as given in US11986532B2 (Arvinas Operations, Inc., priority 2021, dated 2024).
Like-named read-outs stand apart in the source and are kept apart here.

Target: T1, BCL6 (Homo sapiens, UniProt P41182)
T1 construct: endogenous in cells; host or cells: T47D breast cancer epithelial cells
Test: Immunofluorescence protocol for high content imaging of BCL6 (degradation) in T47D cells, 3 days compound treatment
Assay type: cell-based
Conditions: for DC50: read-out: Mean DC50 (nM)* category; for Dmax: read-out: Mean Dmax (%)** category
Procedure, shortened: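 Cells are seeded to reach ~70-90% confluence at endpoint, then dosed next day with compound at a final top concentration of 0.1 or 1 μM (11 points, 3-fold). After 3 days, BCL6 is detected by immunofluorescence and quantified by high-content imaging.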

[1] = T47D cells, 3 days compound treatment

SMILES | DC50 [1] [nM] | Dmax [1] [%] | Dmax (T47D) [%] | DC50 [nM]
CNC(=O)COc1cc2cc(Nc3nc(N4CCC(O[C@H]5C[C@H](N6CC[C@H](c7ccc8c(c7F)CN([C@H]7CCC(=O)NC7=O)C8=O)C[C@H]6C)C5)CC4)ncc3Cl)ccc2n(C(C)C)c1=O [Compound 295, 2-({6-[(5-chloro-2-{4-[(1r,3r)-3-[(2R,4S)-4-{2-[(3S)-2,6-dioxopiperidin-3-yl]-4-fluoro-1-oxo-2,3-dihydro-1H-isoindol-5-yl}-2-methylpiperidin-1-yl]cyclobutoxy]piperidin-1-yl}pyrimidin-4-yl)amino]-2-oxo-1-(propan-2-yl)-1,2-dihydroquinolin-3-yl}oxy)-N-methylacetamide] | – | – | ≥ 70 | < 10
CNC(=O)COc1cc2cc(Nc3nc(N4CCC(OC5CN(C6CCN(c7ccc8c(c7F)CN(C7CCC(=O)NC7=O)C8=O)CC6)C5)CC4)ncc3Cl)ccc2n(C(C)C)c1=O (centres unmarked) [Compound 260, 2-({6-[(5-chloro-2-{4-[(1-{1-[2-(2,6-dioxopiperidin-3-yl)-4-fluoro-1-oxo-2,3-dihydro-1H-isoindol-5-yl]piperidin-4-yl}azetidin-3-yl)oxy]piperidin-1-yl}pyrimidin-4-yl)amino]-2-oxo-1-(propan-2-yl)-1,2-dihydroquinolin-3-yl}oxy)-N-methylacetamide] | – | – | 50 to 70 | < 10
CC[C@@H]1CN([C@H]2C[C@H](OC3CCN(c4ncc(Cl)c(Nc5ccc6c(c5)cc(OCC(=O)NC)c(=O)n6C(C)C)n4)CC3)C2)CCN1c1ccc2c(c1Cl)CN(C1CCC(=O)NC1=O)C2=O (stereo partly drawn) [Compound 205, 2-({6-[(5-chloro-2-{4-[(1r,3r)-3-[(3R)-4-[4-chloro-2-(2,6-dioxopiperidin-3-yl)-1-oxo-2,3-dihydro-1H-isoindol-5-yl]-3-ethylpiperazin-1-yl]cyclobutoxy]piperidin-1-yl}pyrimidin-4-yl)amino]-2-oxo-1-(propan-2-yl)-1,2-dihydroquinolin-3-yl}oxy)-N-methylacetamide] | < 10 | ≥ 70 | – | –
CNC(=O)COc1cc2cc(Nc3nc(N4CCC(O[C@H]5C[C@H](N6[C@H](C)CN(c7ccc8c(c7)C(=O)N(C7CCC(=O)NC7=O)C8=O)C[C@@H]6C)C5)CC4)ncc3Cl)ccc2n(C(C)C)c1=O (stereo partly drawn) [Compound 248, 2-[[6-[[5-chloro-2-[4-[3-[(2R,6S)-4-[2-(2,6-dioxo-3-piperidyl)-1,3-dioxo-isoindolin-5-yl]-2,6-dimethyl-piperazin-1-yl]cyclobutoxy]-1-piperidyl]pyrimidin-4-yl]amino]-1-isopropyl-2-oxo-3-quinolyl]oxy]-N-methyl-acetamide] | – | – | 50 to 70 | < 10
CNC(=O)COc1cc2c(F)c(Nc3cc(N4CCC(CN5CCC6(CN(c7ccc8c(c7F)CN(C7CCC(=O)NC7=O)C8=O)C6)C(F)(F)C5)CC4)ncc3Cl)ccc2n(C(C)C)c1=O (centres unmarked) [Compound 252, 2-{[6-({5-chloro-2-[4-({2-[2-(2,6-dioxopiperidin-3-yl)-4-fluoro-1-oxo-2,3-dihydro-1H-isoindol-5-yl]-5,5-difluoro-2,7-diazaspiro[3.5]nonan-7-yl}methyl)piperidin-1-yl]pyridin-4-yl}amino)-5-fluoro-2-oxo-1-(propan-2-yl)-1,2-dihydroquinolin-3-yl]oxy}-N-methylacetamide] | – | – | 50 to 70 | < 10
CNC(=O)COc1cc2cc(Nc3cc(N4CCC(F)(CN5CCC6(CC5)CN(c5ccc7c(c5F)CN(C5CCC(=O)NC5=O)C7=O)C6(C)C)CC4)ncc3Cl)ccc2n(C(C)C)c1=O (centres unmarked) [Compound 257, 2-{[6-({5-chloro-2-[4-({2-[2-(2,6-dioxopiperidin-3-yl)-4-fluoro-1-oxo-2,3-dihydro-1H-isoindol-5-yl]-1,1-dimethyl-2,7-diazaspiro[3.5]nonan-7-yl}methyl)-4-fluoropiperidin-1-yl]pyridin-4-yl}amino)-2-oxo-1-(propan-2-yl)-1,2-dihydroquinolin-3-yl]oxy}-N-methylacetamide] | – | – | 50 to 70 | < 10
CNC(=O)COc1cc2cc(Nc3nc(N4CCC(CN5CCC6(CC5)CC5(CN(c7ccc8c(c7F)CN(C7CCC(=O)NC7=O)C8=O)C5)C6)CC4)ncc3Cl)ccc2n(C(C)C)c1=O (centres unmarked) [Compound 427] | – | – | ≥ 70 | < 10
CNC(=O)COc1cc2cc(Nc3nc(N4CCC(O[C@H]5C[C@H](N6CC[C@H](c7ccc8c(c7F)CN([C@H]7CCC(=O)NC7=O)C8=O)C[C@@H]6C)C5)CC4)ncc3Cl)ccc2n(C(C)C)c1=O [Compound 293, 2-({6-[(5-chloro-2-{4-[(1r,3r)-3-[(2S,4S)-4-{2-[(3S)-2,6-dioxopiperidin-3-yl]-4-fluoro-1-oxo-2,3-dihydro-1H-isoindol-5-yl}-2-methylpiperidin-1-yl]cyclobutoxy]piperidin-1-yl}pyrimidin-4-yl)amino]-2-oxo-1-(propan-2-yl)-1,2-dihydroquinolin-3-yl}oxy)-N-methylacetamide] | – | – | 50 to 70 | < 10
CNC(=O)COc1cc2c(F)c(Nc3nc(N4CCC(O[C@H]5C[C@H](N6CCC(c7ccc8c(c7)C(=O)N(C7CCC(=O)NC7=O)C8=O)CC6)C5)CC4)ncc3Cl)ccc2n(C(C)C)c1=O (some centres unmarked) [Compound 172, 2-({6-[(5-chloro-2-{4-[(1r,3r)-3-{4-[2-(2,6-dioxopiperidin-3-yl)-1,3-dioxo-2,3-dihydro-1H-isoindol-5-yl]piperidin-1-yl}cyclobutoxy]piperidin-1-yl}pyrimidin-4-yl)amino]-5-fluoro-2-oxo-1-(propan-2-yl)-1,2-dihydroquinolin-3-yl}oxy)-N-methylacetamide] | < 10 | ≥ 70 | – | –
CNC(=O)COc1cc2cc(Nc3nc(N4CCC(O[C@H]5C[C@H](N6CCC(c7ccc8c(c7F)CN(C7CCC(=O)NC7=O)C8=O)C(F)C6)C5)CC4)ncc3Cl)ccc2n(C(C)C)c1=O (some centres unmarked) [Compound 201, 2-[[6-[[5-chloro-2-[4-[3-[4-[2-(2,6-dioxo-3-piperidyl)-4-fluoro-1-oxo-isoindolin-5-yl]-3-fluoro-1-piperidyl]cyclobutoxy]-1-piperidyl]pyrimidin-4-yl]amino]-1-isopropyl-2-oxo-3-quinolyl]oxy]-N-methyl-acetamide] | < 10 | ≥ 70 | – | –
CNC(=O)COc1cc2cc(Nc3nc(N4CCC(O[C@H]5C[C@H](N6[C@H](C)CN(c7ccc8c(c7)CN(C7CCC(=O)NC7=O)C8=O)C[C@H]6C)C5)CC4)ncc3Cl)ccc2n(C(C)C)c1=O (stereo partly drawn) [Compound 250, 2-({6-[(5-chloro-2-{4-[(1r,3r)-3-[(2R,6R)-4-[2-(2,6-dioxopiperidin-3-yl)-1-oxo-2,3-dihydro-1H-isoindol-5-yl]-2,6-dimethylpiperazin-1-yl]cyclobutoxy]piperidin-1-yl}pyrimidin-4-yl)amino]-2-oxo-1-(propan-2-yl)-1,2-dihydroquinolin-3-yl}oxy)-N-methylacetamide] | – | – | 50 to 70 | < 10

Second part, led by results:

DC50 [1] [nM] | Dmax [1] [%] | SMILES | Dmax (T47D) [%] | DC50 [nM]
10 to 50 | 50 to 70 | CNC(=O)COc1cc2cc(Nc3nc(N4CCC(CN5CCC6(CC5)CC(c5ccc7c(c5)C(=O)N(C5CCC(=O)NC5=O)C7=O)C6)CC4)ncc3Cl)ccc2n(C(C)C)c1=O (centres unmarked) [Compound 150, 2-{[6-({5-chloro-2-[4-({2-[2-(2,6-dioxopiperidin-3-yl)-1,3-dioxo-2,3-dihydro-1H-isoindol-5-yl]-7-azaspiro[3.5]nonan-7-yl}methyl)piperidin-1-yl]pyrimidin-4-yl}amino)-2-oxo-1-(propan-2-yl)-1,2-dihydroquinolin-3-yl]oxy}-N-methylacetamide] | – | –
10 to 50 | < 50 | CNC(=O)COc1cc2cc(Nc3nc(N4CCC5(CCN(CC6CCN(c7ccc8c(c7)C(=O)N(C7CCC(=O)NC7=O)C8=O)CC6)C5)C4)ncc3Cl)ccc2n(C(C)C)c1=O (centres unmarked) [Compound 4, 2-{[6-({5-chloro-2-[7-({1-[2-(2,6-dioxopiperidin-3-yl)-1,3-dioxo-2,3-dihydro-1H-isoindol-5-yl]piperidin-4-yl}methyl)-2,7-diazaspiro[4.4]nonan-2-yl]pyrimidin-4-yl}amino)-2-oxo-1-(propan-2-yl)-1,2-dihydroquinolin-3-yl]oxy}-N-methylacetamide] | – | –
10 to 50 | 50 to 70 | CNC(=O)COc1cc2cc(Nc3nc(N4CCC(CN5CCC6(CC5)CN(c5ccc7c(c5)C(=O)N(C5CCC(=O)NC5=O)C7=O)C6)CC4)ncc3F)ccc2n(C(C)C)c1=O (centres unmarked) [Compound 57, 2-{[6-({2-[4-({2-[2-(2,6-dioxopiperidin-3-yl)-1,3-dioxo-2,3-dihydro-1H-isoindol-5-yl]-2,7-diazaspiro[3.5]nonan-7-yl}methyl)piperidin-1-yl]-5-fluoropyrimidin-4-yl}amino)-2-oxo-1-(propan-2-yl)-1,2-dihydroquinolin-3-yl]oxy}-N-methylacetamide] | – | –
< 10 | 50 to 70 | CNC(=O)COc1cc2cc(Nc3nc(N4CCC(CN5CCC6(CC(=O)N(c7ccc8c(c7)CN(C7CCC(=O)NC7=O)C8=O)C6)C5)CC4)ncc3Cl)ccc2n(C(C)C)c1=O (centres unmarked) [Compound 39, 2-{[6-({5-chloro-2-[4-({7-[2-(2,6-dioxopiperidin-3-yl)-1-oxo-2,3-dihydro-1H-isoindol-5-yl]-8-oxo-2,7-diazaspiro[4.4]nonan-2-yl}methyl)piperidin-1-yl]pyrimidin-4-yl}amino)-2-oxo-1-(propan-2-yl)-1,2-dihydroquinolin-3-yl]oxy}-N-methylacetamide] | – | –
< 10 | 50 to 70 | CNC(=O)COc1cc2cc(Nc3nc(N4CCC5(CC4)CC(C(C)(C)N4CCN(c6cccc7c6CN(C6CCC(=O)NC6=O)C7=O)CC4)C5)ncc3Cl)ccc2n(C(C)C)c1=O (centres unmarked) [Compound 34, 2-{[6-({5-chloro-2-[2-(2-{4-[2-(2,6-dioxopiperidin-3-yl)-1-oxo-2,3-dihydro-1H-isoindol-4-yl]piperazin-1-yl}propan-2-yl)-7-azaspiro[3.5]nonan-7-yl]pyrimidin-4-yl}amino)-2-oxo-1-(propan-2-yl)-1,2-dihydroquinolin-3-yl]oxy}-N-methylacetamide] | – | –
